Consider two compounds from patent publication US20250043290A1, “RNA SEQUENCES THAT INDUCE FLUORESCENCE OF SMALL MOLECULE FLUOROPHORES, MOLECULAR COMPLEXES, SENSORS, AND METHODS OF USE THEREOF” (CORNELL UNIVERSITY, priority 2021, published 2025).

“Also recorded” adds a separate entry of the source.

The test system of series [1] is HEK293T cells. The series can be described thus: Cytotoxicity of DFAME, MTT assay after illumination. The series is classed as cell-based. The settings on record: 10 μM, illuminated for 10 minutes. The procedure: FIG. 31A is a graph showing the results of an experiment evaluating fluorescence of DFAME when mixed with cells. An important criteria for a fluorogenic dye is that it must have very low fluorescence when mixed with cells. To test this, 10 μM DFAME was incubated with cultured HEK293T cells and the fluorescence intensity of the DFAME-incubated cells was measured. […] Although the background fluorescence in cells induced by DFAME (n=48 cells) was higher than DFHO (n=47 cells) or DFHBI-1T (n=44 cells), it was reasoned that DFAME could be used if enough fluorogenic aptamer is used in cells. Data were collected from three independent cell cultures. Values are means±s.d. FIG. 31B is a graph showing the cytotoxicity of DFAME. To apply a fluorogenic dye in cells, it is critical that this dye has minimal cytotoxicity. To test the cytotoxicity of DFAME, HEK293T cells were first incubated with 10 μM DFAME, then illuminated for 10 minutes using a Nikon Intensilight C-HGFIE 130 W mercury lamp with the TRITC filter set. Control cells were illuminated under identical conditions either with 0.2% DMSO (illuminated with the TRITC filter set) or 10 μM malachite green (illuminated with the Cy5 filter set). […] MTT absorbance readings were performed at 550 nm with 650 nm absorbance used for background subtraction. […]
(In general: Formazan colour is commonly taken as a measure of viable cells.)

The nature of series [2]: Photophysical properties of DFAME, DFHO and RNA complexes (Beetroot study). In kind it is physicochemical. An excerpt:
dsDNA encoding the top-performing RNA sequences from the brightest bacterial colonies was PCR amplified from the purified plasmids. PCR products were subjected to gel electrophoresis in 2% TBE gel, and the PCR product band corresponding to the correct size was excised from gel and further purified with PCR purification columns (Qiagen) and in vitro transcribed using an AmpliScribe T7-Flash Transcription Kit (Epicenter). The resulting RNA was then purified using Zymo RNA concentrator columns and quantified by absorbance using a Thermo Scientific NanoDrop 2000 spectrophotometer. For absorption, excitation and emission spectra measurements, “excess RNA” conditions and limiting amount of fluorophore was used to ensure that no free fluorophore contributes to the absorbance or fluorescence signal. The RNA concentration used for fluorescence and absorbance measurements was 20 μM and 50 μM, respectively, while the dye concentration was 2 μM and 5 μM, respectively. All in vitro RNA properties were measured in 40 mM HEPES pH 7.4, 100 mM KCl, 5 mM MgCl2 buffer, unless specified.
Extinction coefficient was calculated based on Beer's law. Briefly, absorbance spectrum of 5 μM DFAME, Beetroot-DFAME, or Corn-DFAME was measured using a Thermo Scientific NanoDrop 2000 spectrophotometer with cuvette capability. Extinction coefficient was calculated by dividing peak absorbance value by the concentration of fluorophore alone, or RNA-fluorophore complex.
Quantum yield was determined by comparing the integral of the emission spectra for DFAME or RNA-DFAME complex with the corresponding integral obtained from Rhodamine B solution. These integral values were plotted against the absorbance values corresponding to the excitation wavelength. The slopes from the above plots were calculated for determining quantum yield. Quantum yield was calculated by multiplying the quantum yield of Rhodamine B by the slope of DFAME or RNA-DFAME complex, then divided by the slope of Rhodamine B.

The nature of series [3]: Fluorescence emission of Beetroot with BI. In kind it is biochemical. The settings on record: 20 μM RNA, 2 μM dye. Here is the method: (§1) To test whether Beetroot can activate DFHO, the fluorescence emission spectrum of the Beetroot-DFHO complex was measured. In brief, 20 μM Beetroot and 2 μM DFHO were mixed, and the fluorescence emission of the Beetroot-DFHO complex was measured. […] To test whether Beetroot can activate DFHBI-1T, the fluorescence emission spectrum of the Beetroot-DFHBI-1T complex was measured using the same protocol described in FIG. 32A. […] To test whether Beetroot can activate BI, the fluorescence emission spectrum of the Beetroot-BI complex was measured using the same protocol described in FIG. 32A. […] To test whether Corn can activate DFAME, the fluorescence emission spectrum of the Corn-DFAME complex was measured using the same protocol described in FIG. 32A.

Another series has as its system Corn. The series can be described thus: Beetroot-Corn heterodimer formation, nondenaturing electrophoretic analysis. In kind it is binding. Particulars: equimolar mixture, heat-denatured and cooled. The procedure: FIG. 27B is an image showing that Beetroot is a dimer in vitro. To test this, nondenaturing electrophoretic analysis was performed on a wild-type Beetroot and a mutant Beetroot with mutations in the G-quadruplex that are expected to disrupt any putative dimer formation. […] The RNA band marked with an asterisk (*) reflects an RNA side product from in vitro transcription. […] To test whether Beetroot and Corn can form heterodimers in vitro, nondenaturing electrophoretic analysis was performed on Beetroot, Corn, and a Beetroot-Corn equimolar mixture to measure heterodimer formation. If Beetroot (107 nt) and Corn (250 nt) are orthogonal dimers, two distinct molecular species would be expected: dimeric Beetroot and dimeric Corn. On the other hand, if Beetroot-Corn heterodimers are formed, a third molecular species, reflecting a Beetroot-Corn heterodimer, with a molecular weight in between dimeric Beetroot and dimeric Corn, would be expected. […] In-gel staining with DFAME and DFHO also confirmed the identity of the putative dimeric species. The RNA band marked with an asterisk (*) reflects an RNA side product from in vitro transcription. A final concentration of 350 nM RNA was used in each lane. […]

Series [4] is described as follows: Fluorescence activation of DFAME by aptamers in vitro. The series is classed as biochemical. The settings on record: in vitro. Here is the method: as §1
The eluted RNAs were then ethanol precipitated, reverse transcribed, PCR amplified and in vitro transcribed to yield the pool for the next SELEX round. The presence of fluorescent RNA species in each pool was assessed by mixing 20 μM RNA and 10 μM DFAME and measuring fluorescence emission of this solution on a fluorometer in comparison with the fluorophore alone. At this point, RNAs were cloned into bacterial expression plasmids for FACS-based screening.
dsDNA encoding the top-performing RNA sequences from the brightest bacterial colonies was PCR amplified from the purified plasmids. […] The resulting RNA was then purified using Zymo RNA concentrator columns and quantified by absorbance using a Thermo Scientific NanoDrop 2000 spectrophotometer. For absorption, excitation and emission spectra measurements, “excess RNA” conditions and limiting amount of fluorophore was used to ensure that no free fluorophore contributes to the absorbance or fluorescence signal. The RNA concentration used for fluorescence and absorbance measurements was 20 μM and 50 μM, respectively, while the dye concentration was 2 μM and 5 μM, respectively. All in vitro RNA properties were measured in 40 mM HEPES pH 7.4, 100 mM KCl, 5 mM MgCl2 buffer, unless specified.

A short description of series [5]: Fluorescence emission of Beetroot with DFHBI-1T. The series is classed as biochemical. Particulars: 20 μM RNA, 2 μM dye. The procedure: as §1
For the next series, the system named is Beetroot. The series is described as follows: Beetroot homodimer dissociation, serial dilution and non-denaturing gel electrophoresis. The series is classed as binding. The settings on record: dilution 1000 nM to 1.4 nM, 20° C., 12 hours; read-out: Homodimerization dissociation constant (Kd). Here is the method:
FIGS. 33A-33C provide the dissociation constant (Kd) of Beetroot homodimer. […] These RNAs were incubated at 20° C. for 12 hours and then analyzed using non-denaturing gel electrophoresis (FIG. 33A). The fraction of Beetroot monomer (FIG. 33B) and Beetroot dimer (FIG. 33C) were quantified after SYBR Gold staining. […] The RNA band marked with an asterisk (*) reflects an RNA side product from in vitro transcription. The same side product band was also observed in FIGS. 27B-27C. Quantification shown in […] is based on two independent experiments. FIG. 33D are images showing genetic encoding of simple macromolecular RNA assemblies in cells using Corn when circular RNAs containing 3 and 5 copies of Corn were expressed in HEK293T cells. Clusters of these Corn-containing RNAs were observed as large intracellular puncta. Data shown here is a representative image from three independent cell cultures. Scale bar, 20 μm. FIG. 33E is a graph showing the quantification of the fraction of Corn and Beetroot in the cell that accumulates in puncta. As the valency of Corn increases from three to five, the fraction of Corn participating in the RNA assembly increases from 28±12% to 57±14%. Compared to 5× Corn, a fraction of 27±11% of 5× Beetroot are participating in the Beetroot RNA assembly. Values are means±s.d. FIG. 33F is a graph showing quantification of RNA assembly size in cells. […]

Series [6] deals with HEK293T cells. The series can be described thus: Imaging Beetroot in HEK293T cells. In kind it is cell-based. The settings on record: Tornado circular RNA, tRNA or F30-tRNA scaffold, 10 μM DFAME, 5 mM MgCl2. Here is the method:
FIGS. 35A-35B show imaging Beetroot in HEK293T cells. To test whether Beetroot could be imaged in HEK293T cells, Beetroot was expressed in Tornado. […] FIG. 35B are images showing HEK293T cells which were transiently transfected with Beetroot-expressing plasmids. About 36 hours after transfection, these transfected HEK293T cells were incubated with 10 μM DFAME and 5 mM MgCl2 for 1 hour prior to imaging. Detectable levels of red fluorescence were not observed in HEK293T cells. Data shown here is a representative image from three independent cell cultures. Scale bar, […].
Prior to imaging experiments, HEK293T cells were incubated with 1 μl of Hoechst 33342 (Thermo Fisher Scientific, H3570) per 2 ml of imaging media (phenol red-free Dulbeco's modified Eagle's medium (Thermo Fisher Scientific 31053-028) supplemented with 10% fetal bovine serum (Corning 35-010-CV), 100 U ml-1 of penicillin and […] of streptomycin, 1× GlutaMAX (Thermo Fisher Scientific, 35050-061) and 1 mM sodium pyruvate (Thermo Fisher Scientific, 11360-070)). For imaging experiments of RNA-fluorophore complex, HEK293T cells were incubated with imaging media supplemented with a final concentration of 10 μM fluorophore (DFHO or DFAME) and 5 mM MgCl2 for one hour prior to imaging.

The nature of series [7]: Fluorescence emission of Beetroot with DFHO. Particulars: 20 μM Beetroot, 2 μM DFHO. The series is classed as biochemical. The procedure:
as §1

As to `COC(=O)/C=C/C1=NC(=C\c2cc(F)c(O)c(F)c2)/C(=O)N1C` [DFAME, methyl 3-((Z)-4-(3,5-difluoro-4-hydroxybenzylidene)-1-methyl-5-oxo-4,5-dihydro-1H-imidazol-2-yl)acrylate], in the series with HEK293T cells [1], the Cytotoxicity result is “low cytotoxicity”. In series [2], this compound had an Emission maximum of 641 nm and an Excitation maximum of 508 nm. In addition, the Fluorescence in solution entry in series [2] (10 μM) is on record as “very low red fluorescence”. Further, in series [2] (DFAME alone, at 514 nm, pH 7.4 buffer), the Extinction coefficient is listed as 32,500 M^−1cm^−1. In series [2] (relative to Corn-DFHO), the “Brightness (extinction coefficient × quantum yield)” value is given as 1.3. The same compound displayed a Fluorescence quantum yield in series [2] (versus Rhodamine B) of 0.0029.

By Kd is commonly meant the concentration at which binding is half-saturated. Turning to “Beetroot: red-fluorescent dimeric fluorogenic RNA aptamer binding DFAME, SEQ ID NO: 96 (GUUAGGCAGAGGUGGGUGGUGUGGAGGAGUAUCUGUC; RNA, backbone not given here)”, the “Binding and activation of BI fluorescence” value in series [3] is “cannot bind and activate”. In addition, in the series on Corn, the “Heterodimer formation with Corn” value is given as “no mixed Corn-Beetroot heterodimers”. In addition, the “Fold fluorescence enhancement of DFAME” value in series [4] was “approximately 40 fold”. Moreover, the “Binding and activation of DFHBI-1T fluorescence” value in [5] was “cannot bind and activate”. Further, the Kd in the series with Beetroot is < 1 nM. Besides, the “Red fluorescence in cells” value in the series with HEK293T cells [6] is listed as “not observed”. Also, the “Binding and activation of DFHO fluorescence” value in series [7] was “weakly binds and activates; also recorded: only weakly bind and activate”.
